Legend:
[1] = molecular target: T1, Glycogen phosphorylase, liver form (Homo sapiens, UniProt P06737); test: Inhibitory activity against HLGP(human liver glycogen phosphorylase)
T1 sequence (P06737 whole entry): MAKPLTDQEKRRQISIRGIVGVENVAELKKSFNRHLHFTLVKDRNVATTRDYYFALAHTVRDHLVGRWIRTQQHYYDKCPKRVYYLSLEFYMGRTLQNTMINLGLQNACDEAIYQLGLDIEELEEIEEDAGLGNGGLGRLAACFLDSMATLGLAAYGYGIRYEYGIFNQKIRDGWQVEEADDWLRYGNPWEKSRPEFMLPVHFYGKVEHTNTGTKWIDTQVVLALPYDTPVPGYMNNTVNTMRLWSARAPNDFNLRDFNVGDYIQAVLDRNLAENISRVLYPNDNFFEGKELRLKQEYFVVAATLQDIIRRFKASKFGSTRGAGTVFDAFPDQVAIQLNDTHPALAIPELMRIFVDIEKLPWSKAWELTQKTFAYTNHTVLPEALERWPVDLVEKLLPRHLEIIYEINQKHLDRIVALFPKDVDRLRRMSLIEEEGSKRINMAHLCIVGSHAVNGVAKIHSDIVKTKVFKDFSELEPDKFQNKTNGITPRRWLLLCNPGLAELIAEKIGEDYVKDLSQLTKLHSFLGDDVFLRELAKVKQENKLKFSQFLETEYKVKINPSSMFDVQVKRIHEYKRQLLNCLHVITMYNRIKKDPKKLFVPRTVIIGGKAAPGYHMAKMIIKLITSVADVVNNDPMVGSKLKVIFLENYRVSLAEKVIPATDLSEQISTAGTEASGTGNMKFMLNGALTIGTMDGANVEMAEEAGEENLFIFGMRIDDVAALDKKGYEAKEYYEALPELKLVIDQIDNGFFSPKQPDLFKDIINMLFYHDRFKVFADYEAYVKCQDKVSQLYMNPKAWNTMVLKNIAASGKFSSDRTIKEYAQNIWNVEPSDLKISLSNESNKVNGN

[2] = molecular target: T2, Glycogen phosphorylase, muscle form (Homo sapiens, UniProt P11217); test: Inhibitory activity against HMGP(human muscle glycogen phosphorylase)
T2 sequence (P11217 whole entry): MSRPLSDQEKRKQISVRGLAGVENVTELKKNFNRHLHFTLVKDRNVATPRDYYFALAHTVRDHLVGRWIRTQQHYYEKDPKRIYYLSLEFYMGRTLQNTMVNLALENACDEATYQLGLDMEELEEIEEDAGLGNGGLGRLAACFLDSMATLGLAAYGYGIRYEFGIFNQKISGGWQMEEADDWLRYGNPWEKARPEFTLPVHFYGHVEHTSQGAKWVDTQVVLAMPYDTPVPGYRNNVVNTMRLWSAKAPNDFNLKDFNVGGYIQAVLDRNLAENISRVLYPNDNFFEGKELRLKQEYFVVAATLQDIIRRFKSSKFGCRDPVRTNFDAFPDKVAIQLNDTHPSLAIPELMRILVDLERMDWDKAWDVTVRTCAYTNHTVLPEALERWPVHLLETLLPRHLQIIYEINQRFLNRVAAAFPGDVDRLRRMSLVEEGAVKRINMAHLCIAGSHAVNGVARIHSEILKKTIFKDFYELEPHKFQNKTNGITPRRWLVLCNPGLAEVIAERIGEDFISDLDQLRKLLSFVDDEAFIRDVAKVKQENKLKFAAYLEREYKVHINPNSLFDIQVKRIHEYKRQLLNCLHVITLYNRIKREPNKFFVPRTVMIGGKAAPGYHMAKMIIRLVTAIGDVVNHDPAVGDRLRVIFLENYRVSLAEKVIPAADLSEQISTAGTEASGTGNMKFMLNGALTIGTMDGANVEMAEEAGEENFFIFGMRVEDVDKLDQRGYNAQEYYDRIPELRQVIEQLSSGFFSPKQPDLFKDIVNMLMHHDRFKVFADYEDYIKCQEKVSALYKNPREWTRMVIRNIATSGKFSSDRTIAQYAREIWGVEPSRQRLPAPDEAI

[3] = Cmax in male mice after 2 mg/kg oral dose; format: ADME, organism-based; parameters: dose 2 mg/kg, route oral; conditions: mouse, in vivo
[4] = Bioavailability in male mice, 2mg/kg oral and 1 mg/kg intravenous dose; format: ADME, organism-based; conditions: mouse, in vivo
[5] = Half-life in male mice after 1 mg/kg intravenous dose; format: ADME, organism-based; parameters: dose 1 mg/kg, route intravenous; conditions: mouse, in vivo
[6] = molecular target: T3, Glycogen phosphorylase, liver form (Mus musculus, UniProt Q9ET01); test: Inhibitory activity against mouse liver glycogen phosphorylase
T3 sequence (Q9ET01 whole entry): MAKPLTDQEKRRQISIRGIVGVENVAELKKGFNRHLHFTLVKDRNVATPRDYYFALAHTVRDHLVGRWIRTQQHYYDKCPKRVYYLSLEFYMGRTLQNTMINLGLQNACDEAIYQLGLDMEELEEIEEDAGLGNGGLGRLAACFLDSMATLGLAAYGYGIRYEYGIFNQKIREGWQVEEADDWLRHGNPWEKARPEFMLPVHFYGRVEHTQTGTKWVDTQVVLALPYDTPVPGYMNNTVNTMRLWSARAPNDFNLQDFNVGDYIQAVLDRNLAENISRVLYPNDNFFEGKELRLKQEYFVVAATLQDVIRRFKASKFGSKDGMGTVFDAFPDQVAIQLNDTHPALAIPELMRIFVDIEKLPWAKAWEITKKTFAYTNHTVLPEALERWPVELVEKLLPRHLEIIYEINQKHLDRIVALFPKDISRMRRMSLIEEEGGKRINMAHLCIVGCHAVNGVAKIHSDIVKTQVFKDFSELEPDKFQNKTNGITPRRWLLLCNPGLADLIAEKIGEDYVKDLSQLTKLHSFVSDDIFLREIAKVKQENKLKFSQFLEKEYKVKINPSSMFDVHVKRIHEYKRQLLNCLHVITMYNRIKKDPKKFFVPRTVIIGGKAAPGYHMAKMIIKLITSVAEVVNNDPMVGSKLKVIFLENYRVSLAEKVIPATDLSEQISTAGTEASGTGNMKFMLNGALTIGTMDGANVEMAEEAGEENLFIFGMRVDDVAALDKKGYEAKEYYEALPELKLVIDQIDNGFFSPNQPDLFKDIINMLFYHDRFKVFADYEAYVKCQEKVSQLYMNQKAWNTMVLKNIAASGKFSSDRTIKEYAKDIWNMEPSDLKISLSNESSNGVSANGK

[7] = molecular target: T4, Glycogen phosphorylase, liver form (Rattus norvegicus, UniProt P09811); test: Inhibitory activity against rat liver glycogen phosphorylase
T4 sequence (P09811 whole entry): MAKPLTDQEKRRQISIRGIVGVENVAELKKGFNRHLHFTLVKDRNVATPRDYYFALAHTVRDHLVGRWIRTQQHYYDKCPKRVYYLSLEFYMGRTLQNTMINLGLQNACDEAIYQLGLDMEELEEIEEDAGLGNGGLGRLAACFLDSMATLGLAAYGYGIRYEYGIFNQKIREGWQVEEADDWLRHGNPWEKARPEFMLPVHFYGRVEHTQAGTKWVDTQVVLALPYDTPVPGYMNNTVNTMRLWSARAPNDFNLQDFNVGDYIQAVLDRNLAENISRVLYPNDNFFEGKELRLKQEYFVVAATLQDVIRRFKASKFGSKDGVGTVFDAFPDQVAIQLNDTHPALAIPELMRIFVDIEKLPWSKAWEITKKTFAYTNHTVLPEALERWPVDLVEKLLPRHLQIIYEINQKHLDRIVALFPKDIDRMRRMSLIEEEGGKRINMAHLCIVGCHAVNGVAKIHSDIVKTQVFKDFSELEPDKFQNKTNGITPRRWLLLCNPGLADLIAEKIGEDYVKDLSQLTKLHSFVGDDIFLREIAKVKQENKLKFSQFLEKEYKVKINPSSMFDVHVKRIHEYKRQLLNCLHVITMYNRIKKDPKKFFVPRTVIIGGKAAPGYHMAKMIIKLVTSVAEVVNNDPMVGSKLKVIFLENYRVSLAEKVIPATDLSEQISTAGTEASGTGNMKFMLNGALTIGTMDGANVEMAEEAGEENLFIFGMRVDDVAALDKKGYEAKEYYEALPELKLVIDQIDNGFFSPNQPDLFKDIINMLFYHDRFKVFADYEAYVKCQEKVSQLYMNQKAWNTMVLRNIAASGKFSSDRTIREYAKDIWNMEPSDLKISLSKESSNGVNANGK

| SMILES | IC50 [1] [nM] | IC50 [2] [nM] | Cmax [3] [nM] | bioavailability [4] [%] | half-life [5] [h] | IC50 [6] [nM] | IC50 [7] [nM] |
| --- | --- | --- | --- | --- | --- | --- | --- |
| O=C(Nc1cc2ccccc2cc1Oc1ccc(C(=O)O)c(C(=O)O)c1)c1cc(Cl)ccn1 | 2 | 12 | – | – | – | – | – |
| O=C(Nc1cc2ccccc2cc1Oc1ccc(C(=O)O)c(C(=O)O)c1)c1ccccc1 | 2880 | 12300 | – | – | – | – | – |
| O=C(Nc1c(F)cccc1Oc1ccc(C(=O)O)c(C(=O)O)c1)c1cc(Cl)ccn1 | 10 | 60 | 44 | 4.1 | 1 | < 9 | < 9 |
| O=C(Nc1cc2ccccc2cc1Oc1ccc(C(=O)O)c(C(=O)O)c1)c1cccc([N+](=O)[O-])c1 | 23 | 140 | – | – | – | – | – |
| O=C(Nc1c(F)cccc1Oc1ccc(C(=O)O)c(C(=O)O)c1)c1cccc([N+](=O)[O-])c1 | 250 | 1860 | – | – | – | 207 | 302 |
| COc1ccnc(C(=O)Nc2ccccc2Oc2ccc(C(=O)O)c(C(=O)O)c2)c1 | 20 | 200 | – | – | – | 18 | 24 |
| COc1ccnc(C(=O)Nc2c(F)cccc2Oc2ccc(C(=O)O)c(C(=O)O)c2)c1 | 11 | 110 | – | – | – | – | – |
| O=C(Nc1cc(F)ccc1Oc1ccc(C(=O)O)c(C(=O)O)c1)c1cc([N+](=O)[O-])ccn1 | 13 | 109 | – | – | – | – | – |
| O=C(Nc1ccccc1Oc1ccc(C(=O)O)c(C(=O)O)c1)c1cc([N+](=O)[O-])ccn1 | 3 | 25 | – | – | – | – | – |
| O=C(Nc1cc2ccccc2cc1Oc1ccc(C(=O)O)c(C(=O)O)c1)c1ccccn1 | 167 | 844 | – | – | – | – | – |
| O=C(Nc1ccccc1Oc1ccc(C(=O)O)c(C(=O)O)c1)c1cc(I)ccn1 | 39 | 468 | – | – | – | – | – |
| O=C(Nc1cc(F)ccc1Oc1ccc(C(=O)O)c(C(=O)O)c1)c1cc(Cl)ccn1 | 78 | 647 | – | – | – | – | – |
| CCc1ccnc(C(=O)Nc2cc3ccccc3cc2Oc2ccc(C(=O)O)c(C(=O)O)c2)c1 | 4 | 29 | – | – | – | – | – |
| O=C(Nc1ccccc1Oc1ccc(C(=O)O)c(C(=O)O)c1)c1cc(Cl)ccn1 | 17 | 181 | – | – | – | 14 | 16 |
| Cc1ccnc(C(=O)Nc2cc3ccccc3cc2Oc2ccc(C(=O)O)c(C(=O)O)c2)c1 | 10 | 57 | – | – | – | – | – |
| N#Cc1ccnc(C(=O)Nc2ccccc2Oc2ccc(C(=O)O)c(C(=O)O)c2)c1 | 16 | 167 | – | – | – | 14 | 19 |
| O=C(Nc1cc2ccccc2cc1Oc1ccc(C(=O)O)c(C(=O)O)c1)c1cc(C(F)(F)F)ccn1 | 12 | 80 | – | – | – | – | – |
| O=C(Nc1c(F)cccc1Oc1ccc(C(=O)O)c(C(=O)O)c1)c1cc([N+](=O)[O-])ccn1 | 1 | 9 | – | – | – | – | – |
| O=C(Nc1cc2ccccc2cc1Oc1ccc(C(=O)O)c(C(=O)O)c1)c1cc([N+](=O)[O-])ccn1 | 1 | 3 | – | – | – | – | – |
| COc1ccnc(C(=O)Nc2cc3ccccc3cc2Oc2ccc(C(=O)O)c(C(=O)O)c2)c1 | 2 | 12 | – | – | – | – | – |

— ChEMBL document CHEMBL1136449, “A new class of glycogen phosphorylase inhibitors” (Bioorg Med Chem Lett, 2003)
